Assay results as given in ChEMBL document CHEMBL1154640, “Application of desirability-based multi(bi)-objective optimization in the design of selective arylpiperazine derivates for the 5-HT1A serotonin receptor” (Eur J Med Chem, 2009).

Target: T1, 5-hydroxytryptamine receptor 1A (Homo sapiens, UniProt P08908)
T1 sequence (P08908 whole entry): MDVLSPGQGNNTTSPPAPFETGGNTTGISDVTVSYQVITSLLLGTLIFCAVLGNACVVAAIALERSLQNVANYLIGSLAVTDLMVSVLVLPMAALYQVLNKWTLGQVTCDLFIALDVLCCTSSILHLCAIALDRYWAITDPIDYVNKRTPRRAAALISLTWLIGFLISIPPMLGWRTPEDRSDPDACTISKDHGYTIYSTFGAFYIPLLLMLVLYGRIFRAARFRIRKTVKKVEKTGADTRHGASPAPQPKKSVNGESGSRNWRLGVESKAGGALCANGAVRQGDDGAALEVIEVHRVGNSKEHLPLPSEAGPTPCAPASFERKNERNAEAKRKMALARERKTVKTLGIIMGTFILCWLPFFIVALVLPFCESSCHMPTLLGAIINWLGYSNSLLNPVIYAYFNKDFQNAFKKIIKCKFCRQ
Test: Displacement of [3H]8-OH-DPAT from human recombinant 5-HT1A receptor expressed in HEK293 cells after 120 mins
Type: cell-based

Structure (SMILES)	Ki [nM]
COc1ccccc1N1CCN(CCCCn2cnc3ccccc3c2=O)CC1	36.3
O=c1c2ccccc2c(=O)n(-c2ccccc2)n1CCCN1CCN(c2cccc(Cl)c2)CC1	417
O=c1ccc(=O)n(-c2ccccc2)n1CCCCN1CCN(c2cccc(Cl)c2)CC1	50.1
COc1ccccc1N1CCN(CCCCn2c(=O)c3ccccc3c(=O)n2-c2ccccc2)CC1	42.7
COc1ccccc1N1CCN(CCCn2c(=O)c3ccccc3c(=O)n2-c2ccccc2)CC1	30.2
COc1ccccc1N1CCN(CCCCn2c(=O)ccc(=O)n2-c2ccccc2)CC1	11
COc1ccccc1N1CCN(CCCn2c(=O)ccc(=O)n2-c2ccccc2)CC1	53.7
O=c1c2ccccc2ncn1CCCCN1CCN(c2cccc(Cl)c2)CC1	50.1
O=c1c2ccccc2c(=O)n(-c2ccccc2)n1CCCCN1CCN(c2cccc(Cl)c2)CC1	398
O=c1ccc(=O)n(-c2ccccc2)n1CCCN1CCN(c2cccc(Cl)c2)CC1	204
O=c1c2ccccc2ncn1CCCN1CCN(c2cccc(Cl)c2)CC1	234
COc1ccccc1N1CCN(CCCn2cnc3ccccc3c2=O)CC1	100

Target: 5-hydroxytryptamine receptor 2A (Rattus norvegicus, UniProt P14842)
Sequence (P14842 whole entry): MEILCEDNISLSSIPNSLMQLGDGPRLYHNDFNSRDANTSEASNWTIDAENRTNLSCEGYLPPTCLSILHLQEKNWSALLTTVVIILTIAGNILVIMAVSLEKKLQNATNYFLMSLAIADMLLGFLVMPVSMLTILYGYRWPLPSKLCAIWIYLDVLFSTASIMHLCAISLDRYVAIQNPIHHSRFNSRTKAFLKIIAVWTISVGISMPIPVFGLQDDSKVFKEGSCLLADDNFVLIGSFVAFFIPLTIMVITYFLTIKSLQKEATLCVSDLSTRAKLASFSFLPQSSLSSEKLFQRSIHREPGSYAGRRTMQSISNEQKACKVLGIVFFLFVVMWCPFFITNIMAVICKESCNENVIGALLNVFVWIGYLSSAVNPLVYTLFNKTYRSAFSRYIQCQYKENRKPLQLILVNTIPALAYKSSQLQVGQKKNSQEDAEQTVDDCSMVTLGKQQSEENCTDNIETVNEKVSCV
Test: Displacement of [3H]ketanserin from 5-HT2A receptor in Wistar Hannover rat brain cortex membrane

Structure (SMILES)	Ki [nM]
COc1ccccc1N1CCN(CCCCn2cnc3ccccc3c2=O)CC1	562
O=c1c2ccccc2c(=O)n(-c2ccccc2)n1CCCN1CCN(c2cccc(Cl)c2)CC1	661
O=c1ccc(=O)n(-c2ccccc2)n1CCCCN1CCN(c2cccc(Cl)c2)CC1	1820
COc1ccccc1N1CCN(CCCCn2c(=O)c3ccccc3c(=O)n2-c2ccccc2)CC1	372
COc1ccccc1N1CCN(CCCn2c(=O)c3ccccc3c(=O)n2-c2ccccc2)CC1	302
COc1ccccc1N1CCN(CCCCn2c(=O)ccc(=O)n2-c2ccccc2)CC1	1450
COc1ccccc1N1CCN(CCCn2c(=O)ccc(=O)n2-c2ccccc2)CC1	2140
O=c1c2ccccc2ncn1CCCCN1CCN(c2cccc(Cl)c2)CC1	67.6
O=c1c2ccccc2c(=O)n(-c2ccccc2)n1CCCCN1CCN(c2cccc(Cl)c2)CC1	575
O=c1ccc(=O)n(-c2ccccc2)n1CCCN1CCN(c2cccc(Cl)c2)CC1	269
O=c1c2ccccc2ncn1CCCN1CCN(c2cccc(Cl)c2)CC1	15.8
COc1ccccc1N1CCN(CCCn2cnc3ccccc3c2=O)CC1	457
